Results on 1 compound are retold here after paper PMC5114558, “Reader domain specificity and lysine demethylase-4 family function” (Nature Communications, 2016).

The structures appear in SMILES notation. Substitutions are numbered along the chain they refer to.

One test has as its target T1, KDM4A-DTD N940A (Homo sapiens, UniProt O75164, N940A).
T1 construct: DNA encoding DTDs (KDM4A 895–1011aa, KDM4B 917–1031aa and KDM4C 877–991aa); (His)6-HaloTag (pFN29) or (His)6 (pET28b); made in house; host or cells: Escherichia coli BL21 (DE3)
T1 sequence (O75164 895-1011 N940A): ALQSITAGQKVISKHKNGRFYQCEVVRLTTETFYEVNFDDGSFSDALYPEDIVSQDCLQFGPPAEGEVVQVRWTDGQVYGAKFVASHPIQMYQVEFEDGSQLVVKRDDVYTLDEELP
Nature of the test: FP binding, KDM4A-DTD N940A. Conditions: pH 7.4, Fig. 2g, 4g (± s.d., three replicates) and text. An excerpt:
(§1) KDM4 protein sequences used in this study correspond to Uniprot ID: O75164 (human KDM4A, isoform 1), O94953 (human KDM4B, isoform1) and Q9H3R0 (human KDM4C, isoform1). Plasmid encoding KDM4A DTD was kindly provided by R-M Xu (Chinese Academy of Sciences). Complementary DNA encoding human KDM4B-DTD was synthesized (Integrated DNA Technologies). Plasmid containing cDNA of full-length KDM4C (clone ID: HsCD00341594) was obtained from Harvard Plasmid Repository. DNA encoding DTDs (KDM4A 895–1011aa, KDM4B 917–1031aa and KDM4C 877–991aa) were cloned into pFN29 (Promega) with N-terminal (His)6-HaloTag or pET28b with N-terminal (His)6 Tag using In-Fusion HD cloning kit (Clontech). […]
(§2) Peptide sequences are given in Supplementary Table 1. […] Polarization at each concentration was measured as triplicates in 384-well polystyrene black microplates (Thermo Fisher Scientific 262260) by Biotek Synergy H4 multimode plate reader (light source: xenon flash, offset from top: 7 mm, sensitivity: 60%, excitation: 485/20 nm, emission: 528/20 nm, both parallel and perpendicular, normal read speed). Fraction bound (Fb) at each concentration was calculated based on the corresponding polarization values (P): Fbc=(Pc−Pmin)/(Pmax−Pmin), where Pmin is the polarization value of no-protein control and Pmax is the polarization value of the saturation value for that peptide. […]

Test [1] addresses T2, KDM4C DTD (human KDM4C double tudor domain, 877–991aa) (Homo sapiens, UniProt Q9H3R0).
T2 construct: DNA encoding DTDs (KDM4A 895–1011aa, KDM4B 917–1031aa and KDM4C 877–991aa); (His)6-HaloTag (pFN29) or (His)6 (pET28b); made in house; host or cells: Escherichia coli BL21 (DE3)
T2 sequence (Q9H3R0 877-991): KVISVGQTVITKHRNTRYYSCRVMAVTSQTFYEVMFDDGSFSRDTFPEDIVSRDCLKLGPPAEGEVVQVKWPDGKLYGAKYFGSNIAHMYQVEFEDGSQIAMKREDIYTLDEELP
Nature of the test: fluorescence polarization (FP) binding, KDM4C-DTD wild-type. The note with it: Fig. 1c, 3 nM fluorescein-labelled peptide, pH 7.4, ± s.d. from three experimental replicates, read-out: binding constant (FP), KDM4C-DTD.
Excerpt: as §1, §2
A general note: Fluorescence polarisation rises when a labelled molecule tumbles more slowly, as on binding a larger partner.

Test [2] has as its target T3, KDM4A-DTD triple mutant N931D/D939R/D945R (DRR) (Homo sapiens, UniProt O75164, D939R/D945R/N931D).
T3 construct: DNA encoding DTDs (KDM4A 895–1011aa, KDM4B 917–1031aa and KDM4C 877–991aa); (His)6-HaloTag (pFN29) or (His)6 (pET28b); made in house; host or cells: Escherichia coli BL21 (DE3)
T3 sequence (O75164 895-1011 N931D/D939R/D945R): T1 sequence (O75164 895-1011 N940A) with N37D, D45R, A46N, D51R
Nature of the test: FP binding, KDM4A-DTD DRR mutant.
Excerpt: as §1, §2

Test [3] has as its target T4, KDM4A DTD (human KDM4A double tudor domain, 895–1011aa) (Homo sapiens, UniProt O75164).
T4 construct: DNA encoding DTDs (KDM4A 895–1011aa, KDM4B 917–1031aa and KDM4C 877–991aa); (His)6-HaloTag (pFN29) or (His)6 (pET28b); made in house; host or cells: Escherichia coli BL21 (DE3)
T4 sequence (O75164 895-1011): T1 sequence (O75164 895-1011 N940A) with A46N
Nature of the test: fluorescence polarization (FP) binding, KDM4A-DTD wild-type. The note with it: pH 7.4, read-out: Kd, KDM4A-DTD wild-type. An excerpt:
(§3) KDM4 protein sequences used in this study correspond to Uniprot ID: O75164 (human KDM4A, isoform 1), O94953 (human KDM4B, isoform1) and Q9H3R0 (human KDM4C, isoform1). Plasmid encoding KDM4A DTD was kindly provided by R-M Xu (Chinese Academy of Sciences). Complementary DNA encoding human KDM4B-DTD was synthesized (Integrated DNA Technologies). Plasmid containing cDNA of full-length KDM4C (clone ID: HsCD00341594) was obtained from Harvard Plasmid Repository. DNA encoding DTDs (KDM4A 895–1011aa, KDM4B 917–1031aa and KDM4C 877–991aa) were cloned into pFN29 (Promega) with N-terminal (His)6-HaloTag or pET28b with N-terminal (His)6 Tag using In-Fusion HD cloning kit (Clontech). Plasmids encoding Xenopus laevis core histones were a generous gift of K. Luger (University of Colorado-Boulder). Site-directed mutagenesis was performed with Q5 Site-Directed Mutagenesis Kit (New England Biolabs).
(§4) Peptide sequences are given in Supplementary Table 1. […] A no-protein control with only peptide probe was included. Polarization at each concentration was measured as triplicates in 384-well polystyrene black microplates (Thermo Fisher Scientific 262260) by Biotek Synergy H4 multimode plate reader (light source: xenon flash, offset from top: 7 mm, sensitivity: 60%, excitation: 485/20 nm, emission: 528/20 nm, both parallel and perpendicular, normal read speed). Fraction bound (Fb) at each concentration was calculated based on the corresponding polarization values (P): Fbc=(Pc−Pmin)/(Pmax−Pmin), where Pmin is the polarization value of no-protein control and Pmax is the polarization value of the saturation value for that peptide. Dissociation constants (Kd) were derived by KaleidaGraph, Synergy Software (version 4.1.3) using the following equation: Fb=[protein]/([protein]+Kd).

In the next test the target is T5, KDM4B-DTD Y993A (Homo sapiens, UniProt O94953, Y993A).
T5 construct: DNA encoding DTDs (KDM4A 895–1011aa, KDM4B 917–1031aa and KDM4C 877–991aa); (His)6-HaloTag (pFN29) or (His)6 (pET28b); made in house; host or cells: Escherichia coli BL21 (DE3)
T5 sequence (O94953 917-1031 Y993A): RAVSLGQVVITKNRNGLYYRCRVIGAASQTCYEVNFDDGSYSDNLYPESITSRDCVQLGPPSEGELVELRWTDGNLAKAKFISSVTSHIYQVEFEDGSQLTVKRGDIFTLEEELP
Nature of the test: FP binding, KDM4B-DTD Y993A. The note with it: aromatic cage mutant, Supplementary Fig. 4d, value printed in peer review file.
Excerpt: as §1, §2

Another test has as its target T6, KDM4A-DTD N931R (Homo sapiens, UniProt O75164, N931R).
T6 construct: DNA encoding DTDs (KDM4A 895–1011aa, KDM4B 917–1031aa and KDM4C 877–991aa); (His)6-HaloTag (pFN29) or (His)6 (pET28b); made in house; host or cells: Escherichia coli BL21 (DE3)
T6 sequence (O75164 895-1011 N931R limits assumed): T1 sequence (O75164 895-1011 N940A) with N37R, A46N
The test can be described thus: FP binding, KDM4A-DTD N931R. The note with it: pH 7.4, Fig. 2j (± s.d., three replicates) and text, read-out: binding affinity, KDM4A-DTD N931R.
Excerpt: as §1, §2

The next test addresses T7, KDM4A-DTD Y973A (Homo sapiens, UniProt O75164, Y973A).
T7 construct: DNA encoding DTDs (KDM4A 895–1011aa, KDM4B 917–1031aa and KDM4C 877–991aa); (His)6-HaloTag (pFN29) or (His)6 (pET28b); made in house; host or cells: Escherichia coli BL21 (DE3)
T7 sequence (O75164 895-1011 Y973A limits assumed): T1 sequence (O75164 895-1011 N940A) with A46N, Y79A
The test can be described thus: FP binding, KDM4A-DTD Y973A. Conditions: pH 7.4, aromatic cage mutant, Fig. 2e (± s.d., three replicates) and text.
Excerpt: as §1, §2

For test [4], the target named is T8, KDM4B DTD (human KDM4B double tudor domain, 917–1031aa) (Homo sapiens, UniProt O94953).
T8 construct: DNA encoding DTDs (KDM4A 895–1011aa, KDM4B 917–1031aa and KDM4C 877–991aa); (His)6-HaloTag (pFN29) or (His)6 (pET28b); made in house; host or cells: Escherichia coli BL21 (DE3)
T8 sequence (O94953 917-1031): T5 sequence (O94953 917-1031 Y993A) with A77Y
Nature of the test: fluorescence polarization (FP) binding, KDM4B-DTD wild-type. The note with it: Fig. 1c, 3 nM fluorescein-labelled peptide, pH 7.4, ± s.d. from three experimental replicates, read-out: binding constant (FP), KDM4B-DTD.
Excerpt: as §3, §4

For another test, the target named is T9, KDM4A-DTD N931D (Homo sapiens, UniProt O75164, N931D).
T9 construct: DNA encoding DTDs (KDM4A 895–1011aa, KDM4B 917–1031aa and KDM4C 877–991aa); (His)6-HaloTag (pFN29) or (His)6 (pET28b); made in house; host or cells: Escherichia coli BL21 (DE3)
T9 sequence (O75164 895-1011 N931D): T1 sequence (O75164 895-1011 N940A) with N37D, A46N
Nature of the test: FP binding, KDM4A-DTD N931D. Conditions: pH 7.4, Fig. 2j (± s.d., three replicates), Supplementary Fig. 2f and text.
Excerpt: as §1, §2

On to `CC(C)C[C@H](NC(=O)[C@H](CCC(N)=O)NC(=O)[C@H](CCCCN)NC(=O)[C@H](CCCNC(=N)N)NC(=O)c1ccc2c(c1)C(=O)OC21c2ccc(O)cc2Oc2cc(O)ccc21)C(=O)N[C@@H](C)C(=O)N[C@H](C(=O)N[C@@H](CCCC[N+](C)(C)C)C(=O)N[C@@H](C)C(=O)N[C@@H](C)C(=O)N[C@@H](CCCNC(=N)N)C(=O)N[C@@H](CCCCN)C(=O)N[C@@H](CO)C(=O)N[C@@H](C)C(=O)N1CCC[C@H]1C(=O)N[C@@H](C)C(=O)N[C@H](C(=O)O)[C@@H](C)O)[C@@H](C)O` [H3K23me3], for which the Kd at KDM4A-DTD N940A was determined as 57.4 µM; in test [1], 73.6 ± 3.9 µM; in [3], 2.2 µM; at KDM4B-DTD Y993A, 327 µM; at KDM4A-DTD N931R, 73.9 µM; on KDM4A-DTD Y973A, 285 µM. Further, the Kd is 10.3 ± 1.2 µM in test [4] and 0.85 µM at KDM4A-DTD N931D. Moreover, in test [2], the “Kd of DRR mutant” value is “low micromolar Kd value”.
